The record followed here is patent US20260007681A1, “INDOLE DERIVATIVES AS ESTROGEN RECEPTOR DEGRADERS” (REGENTS OF THE UNIVERSITY OF MICHIGAN, priority 2022, published 2026).

Test [1] is described as follows: Cell growth assay (WST-8) (Compounds B1-B278). The class given is cell-based. Particulars: 96 h; T47D cell line; WST-8, 4 days; read-out: Cell Growth Inhibition in T47D cell line IC50. Summed up:
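Read-out is WST-8 absorbance at 450 nm (2.5 h, 37° C) as a fraction of vehicle control, from three separate repeats. Compound exposure lasted 4 days, starting one day after plating 1500 cells/well.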

For another test, the target named is ER (Homo sapiens (Human), UniProt P03372). Briefly: In-cell western blot analysis of relative ER percentage (Compounds B1-B278). The class given is cell-based. The conditions noted are these: ER degradation, 16 hours, read-out: ICW DC50. Summed up: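 In-cell western: after 16 h compound exposure (0.5% DMSO final), fixed and permeabilized cells are probed with anti-ER plus anti-GAPDH and near-infrared secondaries. Relative ER percentage compares treated wells against untreated and DMSO wells taken as 100%; seeding 40,000 or 10,000 cells/well.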

Each structure is given as a SMILES string. A value given as a limit tells only on which side of the number the result lay.

Sequence of ER (P03372 whole entry): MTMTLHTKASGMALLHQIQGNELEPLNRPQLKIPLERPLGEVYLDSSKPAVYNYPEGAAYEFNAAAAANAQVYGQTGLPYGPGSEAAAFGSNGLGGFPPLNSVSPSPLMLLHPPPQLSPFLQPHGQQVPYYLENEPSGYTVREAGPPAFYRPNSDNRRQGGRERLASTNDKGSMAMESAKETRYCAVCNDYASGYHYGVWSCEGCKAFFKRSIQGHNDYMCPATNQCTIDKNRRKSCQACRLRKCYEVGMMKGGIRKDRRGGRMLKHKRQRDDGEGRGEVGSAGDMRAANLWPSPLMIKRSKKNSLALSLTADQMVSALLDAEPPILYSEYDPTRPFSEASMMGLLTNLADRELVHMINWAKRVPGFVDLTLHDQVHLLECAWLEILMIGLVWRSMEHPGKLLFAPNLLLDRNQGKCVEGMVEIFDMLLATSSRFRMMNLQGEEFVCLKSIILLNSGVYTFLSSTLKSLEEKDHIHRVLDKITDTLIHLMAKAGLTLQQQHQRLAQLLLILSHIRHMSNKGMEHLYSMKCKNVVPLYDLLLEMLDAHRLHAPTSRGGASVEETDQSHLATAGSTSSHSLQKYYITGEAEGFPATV

`C[C@@H]1Cc2c([nH]c3ccccc23)[C@@H](c2cnc(N3CCC4(CC3)CN(C(=O)CN3CCN5c6ccc7c(c6OC[C@H]5C3)CN(C3CCC(=O)NC3=O)C7=O)C4)nc2)N1CC(F)F` (stereo partly drawn) [Compound B176, 3-((R)-7-(2-(7-(5-((1R,3R)-2-(2,2-difluoroethyl)-3-methyl-2,3,4,9-tetrahydro-1H-pyrido[3,4-b]indol-1-yl)pyrimidin-2-yl)-2,7-diazaspiro[3.5]nonan-2-yl)-2-oxoethyl)-1-oxo-1,3,5,5a,6,7,8,9-octahydro-2H-pyrazino[1′,2′:4,5][1,4]oxazino[2,3-e]isoindol-2-yl)piperidine-2,6-dione]: in test [1], the concentration for half-maximal inhibition (IC50) lay in the range of 1 to 10 nM. The DC50 on ER is below 10 nM.

Regarding `C[C@@H]1Cc2c([nH]c3ccccc23)[C@@H](c2c(F)cc(N3CCC4(CC3)CN(CC(=O)N3CCN5c6ccc7c(c6OC[C@H]5C3)CN(C3CCC(=O)NC3=O)C7=O)C4)cc2F)N1CC(F)F` (stereo partly drawn) [Compound B177, 3-((R)-7-(2-(7-(4-((1R,3R)-2-(2,2-difluoroethyl)-3-methyl-2,3,4,9-tetrahydro-1H-pyrido[3,4-b]indol-1-yl)-3,5-difluorophenyl)-2,7-diazaspiro[3.5]nonan-2-yl)acetyl)-1-oxo-1,3,5,5a,6,7,8,9-octahydro-2H-pyrazino[1′,2′:4,5][1,4]oxazino[2,3-e]isoindol-2-yl)piperidine-2,6-dione], the IC50 in test [1] is below 1 nM. Moreover, the half-maximal degradation concentration (DC50) at ER is 10 to 100 nM.

Consider `C[C@@H]1Cc2c([nH]c3ccccc23)[C@@H](c2cnc(N3CC4(CC(CN5CCN6c7ccc8c(c7OC[C@H]6C5)CN(C5CCC(=O)NC5=O)C8=O)C4)C3)nc2)N1CC(C)(F)F` (stereo partly drawn) [Compound B178, 3-((R)-7-((2-(5-((1R,3R)-2-(2,2-difluoropropyl)-3-methyl-2,3,4,9-tetrahydro-1H-pyrido[3,4-b]indol-1-yl)pyrimidin-2-yl)-2-azaspiro[3.3]heptan-6-yl)methyl)-1-oxo-1,3,5,5a,6,7,8,9-octahydro-2H-pyrazino[1′,2′:4,5][1,4]oxazino[2,3-e]isoindol-2-yl)piperidine-2,6-dione], for which the IC50 in test [1] was in the range of 1 to 10 nM. Moreover, the DC50 on ER lay within 10 to 100 nM.

With `C[C@@H]1Cc2c([nH]c3ccccc23)[C@@H](c2cnc(N3CC4(CC(CN5CCN6c7ccc8c(c7OC[C@H]6C5)CN(C5CCC(=O)NC5=O)C8=O)C4)C3)nc2)N1CC(F)F` (stereo partly drawn) [Compound B179, 3-((R)-7-((2-(5-((1R,3R)-2-(2,2-difluoroethyl)-3-methyl-2,3,4,9-tetrahydro-1H-pyrido[3,4-b]indol-1-yl)pyrimidin-2-yl)-2-azaspiro[3.3]heptan-6-yl)methyl)-1-oxo-1,3,5,5a,6,7,8,9-octahydro-2H-pyrazino[1′,2′:4,5][1,4]oxazino[2,3-e]isoindol-2-yl)piperidine-2,6-dione], the 50% inhibitory concentration (IC50) in test [1] is above 10 nM. On ER, the DC50 was in the range of 10 to 100 nM.

Consider `C[C@@H]1Cc2c([nH]c3ccccc23)[C@@H](c2cnc(N3CCC4(CC3)CC(CN3CCN5c6ccc7c(c6OC[C@H]5C3)CN(C3CCC(=O)NC3=O)C7=O)C4)nc2)N1CC(C)(C)F` (stereo partly drawn) [Compound B180, 3-((R)-7-((7-(5-((1R,3R)-2-(2-fluoro-2-methylpropyl)-3-methyl-2,3,4,9-tetrahydro-1H-pyrido[3,4-b]indol-1-yl)pyrimidin-2-yl)-7-azaspiro[3.5]nonan-2-yl)methyl)-1-oxo-1,3,5,5a,6,7,8,9-octahydro-2H-pyrazino[1′,2′:4,5][1,4]oxazino[2,3-e]isoindol-2-yl)piperidine-2,6-dione], for which the IC50 in test [1] was 1 to 10 nM. Besides, the DC50 at ER was below 10 nM.
